{"source": "patent US6379670B1", "about": "“Methods for treatment of multiple sclerosis using peptide analogs of human myelin basic protein” (Neurocrine Biosciences, Inc., priority 1994, dated 2002)", "key": {"[1]": {"test_system": "EAE in Lewis rats", "test": "Treatment of MBP(83-99)-induced EAE in Lewis rats with peptide analogs (subcutaneous)", "type": "in vivo, Lewis rat", "protocol": "In this system, experimental allergic encephalomyelitis (EAE) was induced in twelve female Lewis rats by injection of MBP(83-99) peptide in complete Freund's adjuvant (CFA) at the base of the tail. Nine days later, rats were divided into two groups of six animals and subcutaneously injected with 13.2 mg/kg of either peptide analog or a control peptide, sperm whale myoglobin (SWM) (110-121). Animals were monitored daily for disease symptoms and scored in a blinded fashion on a nonlinear ascending scale of 0-4 with increments denoting increasing paralysis. Each individual score was averaged with group cohorts to obtain the mean clinical score."}, "[2]": {"test_system": "Dr2b-restricted T cell clone 5F6", "test": "Cytokine production (TNF-α, IFN-γ) by T cell clone 5F6, EIA", "type": "cell-based, human", "protocol": "As discussed in detail below, the production of cytokines may also be assessed. In particular, TNF-α and IFN-γ production are especially interesting. These pro-inflammatory cytokines are thought to play a role in the pathogenesis of the disease. Briefly, T cell clone is incubated in the presence of stimulating MBP peptide and peptide analog or control peptide (SWM) or medium only. After a 24 hour incubation, the levels of TNF-α and IFN-γ in the supernatant are determined using commercially available EIA kits (Endogen, Cambridge, Mass.).\nThe ability of the peptide analog ligand to influence cytokine production was next measured. The Dr2b-restricted T cell clone 5F6 was incubated in the presence of 3 μM MBP peptide with either 10 μM of NBI-5788 (SEQ ID NO:7) or SWM or medium only. As a control, cells were cultured in the presence of medium alone. After 24 hours, supernatants were removed and the levels of tumor necrosis factor alpha (TNF-α) and interferon-y (IFN-γ) determined using commercially available EIA kits."}, "[3]": {"test_system": "T cell lines LW 80, 88, 90 and 93", "test": "Specificity and phenotype of APL-reactive T cell lines from patient", "type": "cell-based, human", "conditions": "25 μg/ml antigen", "protocol": "Four cell cultures from one patient ([…], 32% frequency) showing a response (> three-fold over background) were expanded into cell lines (LW 80, 88, 90 and 93) by incubation in IL-2 for 11-14 days (1-2 passages). Once sufficient cells had grown up, they were cultured with either medium alone or 25 μg/ml of either whole MBP, MBP (83-99) or APL NBI-5788. After 24 hours, the supernatants were collected and the level of cytokines determined (see FIGS. 22 to 26). The remaining cultures were pulsed with radiolabeled thymidine and the extent of incorporation determined."}, "[4]": {"test_system": "Dr2a restricted human T cell clone reactive to MBP", "test": "Human T cell proliferation, Dr2a restricted clone", "type": "cell-based", "protocol": "Human T cells reactive to MBP (83-99) may alternatively be used to measure the ability of the peptide analog to inhibit proliferation of T cells induced by native MBP (83-99) peptide. MBP-specific T cells may be obtained as previously described by Martin et al., J. Immunol. 148:1359-1366, 1992. Briefly, T cell lines are established by culture of human T cells with irradiated, DR-matched peripheral blood cells in MEM supplemented with 2 mM L-glutamine, 50 μg/ml gentamicin, penicillin and streptomycin, 100 U/ml rIL-2, and 10% human AB negative serum. Proliferation of these T cell lines is stimulated by culturing a clone with varying concentration (1.1-30 μM) of native […] peptide, 50 μM of the peptide analog or SWM peptide, in the presence of irradiated, DR matched peripheral blood cells, following incubation for approximately 60 hours, the cells are pulsed with ^3H-thymidine for 12 hours and harvested. The amount of incorporated ^3H-thymidine is measured.\nThe ability of the peptide analogs NBI-5719, 5748, 5765, 5788 and 5789 (SEQ ID NOs: 4-8 respectively) to affect human T cell proliferation was assessed. […] The amount of tritiated thymidine incorporated was measured, and the data represented as the mean plus or minus the standard error of the mean of replicate samples.\nThe potency of NBI-5788 (SEQ ID NO:7) was then determined by varying concentrations of the APL. […]"}}, "note": "Non-standard residues stand in square brackets, D forms with d. No end group written: not given here."}
{"substance": "MBP(83-99) (83E>a, 84N>K, 89F>L, and 91K>A) ([dA]KPVVHLFANIVTPRTP) [NBI-5788]", "values": [{"measurement": "reduction of disease severity compared to the control group", "setting": "[1]; 13.2 mg/kg subcutaneously on day 9, FIG. 9", "value": "about 50%"}, {"measurement": "effect on EAE disease severity versus control peptide", "setting": "[1]; 13.2 mg/kg subcutaneously on day 9, FIGS. 10 and 11", "value": "significantly reduced the severity and duration of the disease"}, {"measurement": "effect on MBP-stimulated production of TNF-α and IFN-γ", "setting": "[2]; 10 μM peptide with 3 μM MBP peptide, to approximately levels with medium only", "value": "dramatically inhibited the production of both pro-inflammatory cytokines"}, {"measurement": "stimulation of cytokine production over background by the analog itself", "setting": "[2]; even at concentrations of 50 μM (data not shown)", "value": "None"}, {"measurement": "thymidine incorporation of T cell line", "setting": "[3]; Line 80 of patient", "value": "25,696 ± 408 cpm"}, {"measurement": "thymidine incorporation of T cell line", "setting": "[3]; Line 88 of patient", "value": "11,603 ± 424 cpm"}, {"measurement": "thymidine incorporation of T cell line", "setting": "[3]; Line 90 of patient", "value": "25,317 ± 8,221 cpm"}, {"measurement": "thymidine incorporation of T cell line", "setting": "[3]; Line 93 of patient", "value": "16,197 ± 2,095 cpm"}, {"measurement": "inhibition of proliferative response of Dr2a restricted T cell clone to MBP(83-99)", "setting": "[4]; 50 μM peptide, MBP(83-99) 1.1-30 μM, FIGS. 13 and 14", "value": "inhibited the ability of a human Dr2a restricted T cell clone to respond"}, {"measurement": "inhibition of response of Dr2a T cell line to MBP(83-99), potency", "setting": "[4]; APL 2, 10 or 50 μM, effect at both 10 and 50 μM, SWM 50 μM, FIG. 15", "value": "significantly altered the ability of the Dr2a T cell line to respond to MBP(83-99)"}]}
